Measurements: US9756852B2, “Topical delivery formulation” (MERIAL INC., priority 2014, dated 2017)

What was measured:
[1] = system: horn fly; test: in-vivo efficacy studies A and B: pour-on formulations for control of horn fly on cows; parameters: species or system Haematobia irritans on cows; conditions: 30% Tributyl acetyl citrate
Protocol: Although many different actives may work with the formulation of the invention, 1H-pyrazole-3-carbonitrile, 1-[2,6-dichloro-4-(trifluoromethyl)phenyl]-5-methyl-4-[(trifluoromethyl)sulfinyl] (i.e., ML465) is the compound used to test topical formulations for control of horn fly on cows for a duration of one month or longer.
(§1) In-vivo and in-vitro studies were conducted to compare wash-off resistance of formulations prepared with lipophilic solvents and with polymers.
It can be seen that the amount of ML465 washed off is at, or below, 10% of the applied dose, indicating a sharp decrease upon exposure to water. This was not sufficient to support thirty days efficacy duration. Thus, efficacy may depend on resistance of the solvent system to water exposure.

[2] = In-lab water resistance (% ML465 removed after water exposure); type: physicochemical; conditions: for In-lab Water Resistance (% ML465 Removed after Water Exposure (n = 2)): 30% Tributyl acetyl citrate
Protocol: as §1
The in-vivo studies of Table 1 were followed with in-vitro studies conducted to assess water resistance of “conventional” solvent systems. Conventional pour-on solvent formulations described below were tested using ML465 as the active under exposure to water for 20 and 40 minutes.
Next, the water resistance of the inventive solvent systems was tested in vitro.

Cc1c([S+]([O-])C(F)(F)F)c(C#N)nn1-c1c(Cl)cc(C(F)(F)F)cc1Cl (stereo not shown) [ML465, 1H-pyrazole-3-carbonitrile, 1-[2,6-dichloro-4-(trifluoromethyl)phenyl]-5-methyl-4-[(trifluoromethyl)sulfinyl]]
Duration of above 90% efficacy ([1]; study A, 3.0% w/v ML465, Miglyol 840): 17 days
Duration of above 90% efficacy ([1]; study B, 0.5% w/v ML465, 5% Polypropylene Glycol (15) stearyl ether, Soybean Oil): 17 days
Duration of above 90% efficacy ([1]; study B, 1.0% w/v ML465, 3% Polypropylene Glycol (15) stearyl ether, 8.5% Isopropyl palmitate, 7% Isobutene H25, Soybean Oil): 17 days
Duration of above 90% efficacy ([1]; study B, 1.0% w/v ML465, 3% Polypropylene Glycol (15) stearyl ether, 10% Isopropyl palmitate, 7% cetearyl octanoate, 10% butyl stearate, Soybean Oil): 24 days
In-lab Water Resistance (% ML465 Removed after Water Exposure (n = 2)) ([2]; 20 min, 5% PPG-15 stearyl ether, 6% Isobutene H25, Soybean Oil): 5.2%
In-lab Water Resistance (% ML465 Removed after Water Exposure (n = 2)) ([2]; 20 min, 5% PPG-15 stearyl ether, 10% Isopropyl palmitate, 10% ceteary octanote, 10% butyl stearate, Soybean Oil): 8.8%
In-lab Water Resistance (% ML465 Removed after Water Exposure (n = 2)) ([2]; 20 min, 5% PPG-15 stearyl ether, Soybean oil): 7.5%
In-lab Water Resistance (% ML465 Removed after Water Exposure (n = 2)) ([2]; 20 min, Miglyol 840): 2.4%
In-lab Water Resistance (% ML465 Removed after Water Exposure (n = 2)) ([2]; 40 min, 5% PPG-15 stearyl ether, 6% Isobutene H25, Soybean Oil): 7.3%
In-lab Water Resistance (% ML465 Removed after Water Exposure (n = 2)) ([2]; 40 min, 5% PPG-15 stearyl ether, 10% Isopropyl palmitate, 10% ceteary octanote, 10% butyl stearate, Soybean Oil): 9.2%
In-lab Water Resistance (% ML465 Removed after Water Exposure (n = 2)) ([2]; 40 min, 5% PPG-15 stearyl ether, Soybean oil): 10.1%
In-lab Water Resistance (% ML465 Removed after Water Exposure (n = 2)) ([2]; 40 min, Miglyol 840): 5.2%
amount of ML465 washed off, % of the applied dose ([2]; traditional formulations of trials A and B, exposure to water): ≤ 10%
